From PubChem BioAssay AID1918947 (Molecular Pharmacology Branch, DTP, NCI, 2023)

Tested on: A498 complex spheroid viability
Test: Anticancer human tumor A498 cell line growth inhibition;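 note: spheroids exposed to agents for seven days before readout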;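 for viability, T/C: 100% = DMSO vehicle-treated spheroids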
Details: for IC50: curve of first compound; for viability, T/C: stronger effect = lower value
Text: Multicellular complex tumor spheroid response to LSD1 Inhibitor Iadademstat in combination with a variety of drugs and investigational agents in selected tumor cell lines
The current study was undertaken to assess response to LSD1 inhibitors in combination with standard-of-care drugs and investigational agents in solid tumor complex spheroid models as well as in the K-562 leukemia. Complex spheroids include a stromal component modeled by human endothelial cells (HUVEC) and fibroblasts modeled by human mesenchymal stem cells (MSCs). The concentration ranges selected for each drug and investigational agent were based upon clinically achievable concentrations if the clinical Cmax of the agent was known.
Compounds. The drugs and investigational agents used in this study are listed on Table 1. All of the agents used, including staurosporine (NSC755774) and gemcitabine (NSC613327), were obtained from the Developmental Therapeutics Program, NCI. FDA-approved anticancer drugs are available from the NCI at http://dtp.nci.nih.gov/branches/dscb/oncology_drugset_explanation.html. Drugs and investigational agents were >95% pure by proton nuclear magnetic resonance (NMR) and liquid chromatography/mass spectrometry (LC/MS). Stock solutions were prepared at 400x in DMSO, stored at -70 degrees C, and diluted in fresh medium prior to their use. The final concentration of DMSO in cell culture wells never exceeded 0.25% (v/v). The FDA-approved anticancer drug set is available from the Developmental Therapeutics Program at https://dtp.cancer.gov/organization/dscb/obtaining/available_plates.htm. All drugs and investigational agents were tested over a range starting from a high concentration at or near the clinical Cmax and decreasing in half-log increments. If the clinical Cmax for an agent had not been determined, the highest concentration tested was 10 microM.
Cell Lines. The patient-derived cancer cell (PDC) lines: 292921-168-R-J2-PDC, K24384-001-R-PDC, and 521955-158-R2-J5-PDC pancreatic carcinomas, 556581-035-R-J1 ovarian carcinoma, 324938-238-R-J1-PDC, 855422-203-R-J1-PDC and 883617-216-R-J1-PDC urothelial bladder carcinomas, 743489-274-T-PDC renal cell carcinoma, 138582-R-J1 Merkel cell tumor, K60290-347-R-J1 and K57222-313-R-J1-PDC glioblastomas, 653999-131-R-J2-PDC, LG0703-F948-PDC, and 349418-098-R-PDC non-small cell lung carcinomas, 885512-296-R-J2-PDC, 171881-019-R-J1-PDC breast carcinomas and 186277-243-T-J2-PDC and 233499-124-R-J2-PDC colon carcinomas were obtained from the NCI Patient-Derived Models Repository (PDMR, https://pdmr.cancer.gov). The established cell lines NCI/ADR-RES (RRID:CVCL_14520 and OVCAR-5 (RRID:CVCL_1628) ovarian carcinomas, 786-O (RRID:CVCL_1051) and A498 (RRID:CVCL_A498) renal cell carcinoma, NCI-H211 (ATCC, cat. CRL-5824; RRID:CVCL_1529), NCI-H196 (ATCC, cat. CRL-5823, RRID:CVCL_1509), SW 1271 (ATCC, cat. CRL-2177, RRID:CVCL_1716) and NCI-H1876 (ATCC, cat. CRL-5902, RRID:CVCL_1503) small cell lung carcinomas, MDA-MB-231 (RRID:CVCL_0062) and MDA-MB-468 (RRID:CVCL_0419)breast carcinomas (10-12). Pooled donor human umbilical vein endothelial cells (HUVEC, Lonza, cat. CC-2519) and human mesenchymal stem cells (hMSC, Lonza, cat. PT-2501) were purchased from Lonza (Walkersville, MD).
Cell Culture. All cells were maintained in an incubator at 37 degrees C and 5% CO2 with 95% humidity. The PDC lines were cultured according to standard operating procedures established by the NCI PDMR (https://pdmr.cancer.gov). Briefly all PDCs were thawed and cultured in Matrigel-coated flasks prepared with a working solution of 1X Ham's F-12 nutrient mix, without supplementation (Invitrogen, Waltham, MA, cat. 11765054), 100 U/mL penicillin-streptomycin (Invitrogen, cat. 15140122), and 2.5% Matrigel (Corning Inc., Corning, NY, cat. 354248) for the first three passages. […]

CC(C)CC(NC(=O)C(Cc1ccccc1)NC(=O)c1cnccn1)B(O)O (stereo not given) + NC1CC1c1ccc(-c2cccc(O)c2)cc1
IC50 (second compound 0.1 µM): 0.661 nM | IC50 (second compound 0.316 µM): 0.69 nM | IC50 (second compound 1 µM): 0.66 nM | IC50 (second compound 3.16 µM): 0.598 nM | IC50 (second compound 10 µM): 0.604 nM | viability, T/C (second compound 0.1 µM, first compound 0.000316 µM): 105% | viability, T/C (second compound 0.1 µM, first compound 0.001 µM): 19.2% | viability, T/C (second compound 0.1 µM, first compound 0.00316 µM): 2.39% | viability, T/C (second compound 0.1 µM, first compound 0.01 µM): 0.87% | viability, T/C (second compound 0.1 µM, first compound 0.0316 µM): 1% | viability, T/C (second compound 0.1 µM, first compound 0.1 µM): 0.39% | viability, T/C (second compound 0.316 µM, first compound 0.000316 µM): 109% | viability, T/C (second compound 0.316 µM, first compound 0.001 µM): 21.9% | viability, T/C (second compound 0.316 µM, first compound 0.00316 µM): 3.05% | viability, T/C (second compound 0.316 µM, first compound 0.01 µM): 1.15% | viability, T/C (second compound 0.316 µM, first compound 0.0316 µM): 0.51% | viability, T/C (second compound 0.316 µM, first compound 0.1 µM): 0.37% | viability, T/C (second compound 1 µM, first compound 0.000316 µM): 106% | viability, T/C (second compound 1 µM, first compound 0.001 µM): 18.4% | viability, T/C (second compound 1 µM, first compound 0.00316 µM): 2.67% | viability, T/C (second compound 1 µM, first compound 0.01 µM): 0.79% | viability, T/C (second compound 1 µM, first compound 0.0316 µM): 0.63% | viability, T/C (second compound 1 µM, first compound 0.1 µM): 0.4% | viability, T/C (second compound 3.16 µM, first compound 0.000316 µM): 95.6% | viability, T/C (second compound 3.16 µM, first compound 0.001 µM): 13.3% | viability, T/C (second compound 3.16 µM, first compound 0.00316 µM): 2.6% | viability, T/C (second compound 3.16 µM, first compound 0.01 µM): 1.41% | viability, T/C (second compound 3.16 µM, first compound 0.0316 µM): 0.42% | viability, T/C (second compound 3.16 µM, first compound 0.1 µM): 0.5% | viability, T/C (second compound 10 µM, first compound 0.000316 µM): 93.7% | viability, T/C (second compound 10 µM, first compound 0.001 µM): 15.9% | viability, T/C (second compound 10 µM, first compound 0.00316 µM): 2.17% | viability, T/C (second compound 10 µM, first compound 0.01 µM): 0.62% | viability, T/C (second compound 10 µM, first compound 0.0316 µM): 0.39% | viability, T/C (second compound 10 µM, first compound 0.1 µM): 0.43%
